Results reported in PubChem BioAssay (NCI).
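A five-concentration, 48-hour dose response in 96-well plates underlies each endpoint, interpolated linearly between surrounding concentrations. Here, GI50 denotes the concentration required for 50% inhibition of growth. TGI marks complete inhibition of growth.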

What was measured:
Test in all cases: NCI anticancer screen, dose series, 48 h
786-0 renal = tested on: 786-0 renal
A549 NSCLC = tested on: A549 NSCLC
ACHN renal = tested on: ACHN renal
CAKI-1 renal = tested on: CAKI-1 renal
CCRF-CEM leukemia = tested on: CCRF-CEM leukemia
COLO 205 colon = tested on: COLO 205 colon
DU-145 prostate = tested on: DU-145 prostate
EKVX NSCLC = tested on: EKVX NSCLC
HCC-2998 colon = tested on: HCC-2998 colon
HCT-116 colon = tested on: HCT-116 colon
HCT-15 colon = tested on: HCT-15 colon
HOP-62 NSCLC = tested on: HOP-62 NSCLC
HOP-92 NSCLC = tested on: HOP-92 NSCLC
HS 578T breast = tested on: HS 578T breast
HT29 colon = tested on: HT29 colon
IGROV1 ovarian = tested on: IGROV1 ovarian
K-562 leukemia = tested on: K-562 leukemia
KM12 colon = tested on: KM12 colon
LOX IMVI melanoma = tested on: LOX IMVI melanoma
M14 melanoma = tested on: M14 melanoma
MALME-3M melanoma = tested on: MALME-3M melanoma
MCF7 breast = tested on: MCF7 breast
MDA-MB-231 breast = tested on: MDA-MB-231 breast
MDA-MB-435 = tested on: MDA-MB-435
MOLT-4 leukemia = tested on: MOLT-4 leukemia
NCI-H226 lung = tested on: NCI-H226 lung
NCI-H23 lung = tested on: NCI-H23 lung
NCI-H460 lung = tested on: NCI-H460 lung
NCI-H522 lung = tested on: NCI-H522 lung
NCI/ADR-RES ovarian = tested on: NCI/ADR-RES ovarian
OVCAR-3 ovarian = tested on: OVCAR-3 ovarian
OVCAR-4 ovarian = tested on: OVCAR-4 ovarian
OVCAR-5 ovarian = tested on: OVCAR-5 ovarian
OVCAR-8 ovarian = tested on: OVCAR-8 ovarian
PC-3 prostate = tested on: PC-3 prostate
RPMI-8226 leukemia = tested on: RPMI-8226 leukemia
SF-268 CNS = tested on: SF-268 CNS
SF-295 CNS = tested on: SF-295 CNS
SK-MEL-2 melanoma = tested on: SK-MEL-2 melanoma
SK-MEL-28 melanoma = tested on: SK-MEL-28 melanoma
SK-MEL-5 melanoma = tested on: SK-MEL-5 melanoma
SK-OV-3 ovarian = tested on: SK-OV-3 ovarian
SN12C renal = tested on: SN12C renal
SNB-19 CNS = tested on: SNB-19 CNS
SNB-75 CNS = tested on: SNB-75 CNS
SR leukemia = tested on: SR leukemia
SW-620 colon = tested on: SW-620 colon
T-47D breast = tested on: T-47D breast
TK-10 renal = tested on: TK-10 renal
U251 CNS = tested on: U251 CNS
UACC-62 melanoma = tested on: UACC-62 melanoma
UO-31 renal = tested on: UO-31 renal

In the case of `O=C1c2ccccc2-c2c1c1ccc([N+](=O)[O-])cc1c(=O)n2CCN1CCOCC1`, the GI50 (786-0 renal) is reported as greater than 100 µM, the TGI (786-0 renal) is reported as greater than 100 µM and the GI50 (A549 NSCLC) is reported as greater than 100 µM. The TGI (A549 NSCLC) was greater than 100 µM, the GI50 (ACHN renal) was 33.4 µM and the TGI (ACHN renal) was greater than 100 µM. The GI50 (CAKI-1 renal) was 41.3 µM, the TGI (CAKI-1 renal) was greater than 100 µM and the GI50 (CCRF-CEM leukemia) was 20.1 µM. It also gave a TGI (CCRF-CEM leukemia) greater than 100 µM, a GI50 (COLO 205 colon) greater than 100 µM and a TGI (COLO 205 colon) greater than 100 µM. The GI50 (DU-145 prostate) was 61 µM, the TGI (DU-145 prostate) was greater than 100 µM and the GI50 (EKVX NSCLC) was greater than 100 µM. It also gave a TGI (EKVX NSCLC) greater than 100 µM, a GI50 (HCC-2998 colon) greater than 100 µM and a TGI (HCC-2998 colon) greater than 100 µM. For the same molecule, the GI50 (HCT-116 colon) was greater than 100 µM, the TGI (HCT-116 colon) was greater than 100 µM and the GI50 (HCT-15 colon) was greater than 100 µM. The TGI (HCT-15 colon) was greater than 100 µM, the GI50 (HOP-62 NSCLC) was 52 µM and the TGI (HOP-62 NSCLC) was greater than 100 µM. It also gave a GI50 (HOP-92 NSCLC) of 26.2 µM, a TGI (HOP-92 NSCLC) greater than 100 µM and a GI50 (HS 578T breast) greater than 100 µM. It also gave a TGI (HS 578T breast) greater than 100 µM, a GI50 (HT29 colon) greater than 100 µM and a TGI (HT29 colon) greater than 100 µM. The GI50 (IGROV1 ovarian) was greater than 100 µM, the TGI (IGROV1 ovarian) was greater than 100 µM and the GI50 (K-562 leukemia) was greater than 100 µM. The TGI (K-562 leukemia) was greater than 100 µM, the GI50 (KM12 colon) was greater than 100 µM and the TGI (KM12 colon) was greater than 100 µM. The GI50 (LOX IMVI melanoma) was 37.8 µM, the TGI (LOX IMVI melanoma) was greater than 100 µM and the GI50 (M14 melanoma) was greater than 100 µM. It also gave a TGI (M14 melanoma) greater than 100 µM, a GI50 (MALME-3M melanoma) greater than 100 µM and a TGI (MALME-3M melanoma) greater than 100 µM. The GI50 (MCF7 breast) was 43 µM, the TGI (MCF7 breast) was greater than 100 µM and the GI50 (MDA-MB-231 breast) was greater than 100 µM. The TGI (MDA-MB-231 breast) was greater than 100 µM, the GI50 (MDA-MB-435) was greater than 100 µM and the TGI (MDA-MB-435) was greater than 100 µM. The GI50 (MOLT-4 leukemia) was 48.8 µM, the TGI (MOLT-4 leukemia) was greater than 100 µM and the GI50 (NCI-H226 lung) was greater than 100 µM. It also gave a TGI (NCI-H226 lung) greater than 100 µM, a GI50 (NCI-H23 lung) greater than 100 µM and a TGI (NCI-H23 lung) greater than 100 µM. For the same molecule, the GI50 (NCI-H460 lung) was 78.4 µM, the TGI (NCI-H460 lung) was greater than 100 µM and the GI50 (NCI-H522 lung) was greater than 100 µM. It also gave a TGI (NCI-H522 lung) greater than 100 µM, a GI50 (NCI/ADR-RES ovarian) greater than 100 µM and a TGI (NCI/ADR-RES ovarian) greater than 100 µM. It also gave a GI50 (OVCAR-3 ovarian) greater than 100 µM, a TGI (OVCAR-3 ovarian) greater than 100 µM and a GI50 (OVCAR-4 ovarian) greater than 100 µM. The TGI (OVCAR-4 ovarian) was greater than 100 µM, the GI50 (OVCAR-5 ovarian) was greater than 100 µM and the TGI (OVCAR-5 ovarian) was greater than 100 µM. For the same molecule, the GI50 (OVCAR-8 ovarian) was greater than 100 µM, the TGI (OVCAR-8 ovarian) was greater than 100 µM and the GI50 (PC-3 prostate) was greater than 100 µM. The TGI (PC-3 prostate) was greater than 100 µM, the GI50 (RPMI-8226 leukemia) was 35.7 µM and the TGI (RPMI-8226 leukemia) was greater than 100 µM. The GI50 (SF-268 CNS) was greater than 100 µM, the TGI (SF-268 CNS) was greater than 100 µM and the GI50 (SF-295 CNS) was 92 µM. For the same molecule, the TGI (SF-295 CNS) was greater than 100 µM, the GI50 (SK-MEL-2 melanoma) was greater than 100 µM and the TGI (SK-MEL-2 melanoma) was greater than 100 µM. For the same molecule, the GI50 (SK-MEL-28 melanoma) was greater than 100 µM, the TGI (SK-MEL-28 melanoma) was greater than 100 µM and the GI50 (SK-MEL-5 melanoma) was greater than 100 µM. It also gave a TGI (SK-MEL-5 melanoma) greater than 100 µM, a GI50 (SK-OV-3 ovarian) greater than 100 µM and a TGI (SK-OV-3 ovarian) greater than 100 µM. For the same molecule, the GI50 (SN12C renal) was 59.3 µM, the TGI (SN12C renal) was greater than 100 µM and the GI50 (SNB-19 CNS) was 79.2 µM. The TGI (SNB-19 CNS) was greater than 100 µM, the GI50 (SNB-75 CNS) was 35.5 µM and the TGI (SNB-75 CNS) was greater than 100 µM. For the same molecule, the GI50 (SR leukemia) was 15.5 µM, the TGI (SR leukemia) was greater than 100 µM and the GI50 (SW-620 colon) was 40.5 µM. It also gave a TGI (SW-620 colon) greater than 100 µM, a GI50 (T-47D breast) of 78.4 µM and a TGI (T-47D breast) greater than 100 µM. The GI50 (TK-10 renal) was greater than 100 µM, the TGI (TK-10 renal) was greater than 100 µM and the GI50 (U251 CNS) was 49.6 µM. It also gave a TGI (U251 CNS) greater than 100 µM, a GI50 (UACC-62 melanoma) of 82.7 µM and a TGI (UACC-62 melanoma) greater than 100 µM. The GI50 (UO-31 renal) was greater than 100 µM and the TGI (UO-31 renal) was greater than 100 µM.
